Publication PMC9400994, “3,4,5‐Trihydroxypiperidine Based Multivalent Glucocerebrosidase (GCase) Enhancers” (Chembiochem, 2022)

What was measured:
GCase [1] = target: T1, GCase (Homo sapiens, UniProt P04062); parameters: method as in earlier work; details: 100 μM; ref 20a; cited from earlier work
T1 sequence (P04062 40-536): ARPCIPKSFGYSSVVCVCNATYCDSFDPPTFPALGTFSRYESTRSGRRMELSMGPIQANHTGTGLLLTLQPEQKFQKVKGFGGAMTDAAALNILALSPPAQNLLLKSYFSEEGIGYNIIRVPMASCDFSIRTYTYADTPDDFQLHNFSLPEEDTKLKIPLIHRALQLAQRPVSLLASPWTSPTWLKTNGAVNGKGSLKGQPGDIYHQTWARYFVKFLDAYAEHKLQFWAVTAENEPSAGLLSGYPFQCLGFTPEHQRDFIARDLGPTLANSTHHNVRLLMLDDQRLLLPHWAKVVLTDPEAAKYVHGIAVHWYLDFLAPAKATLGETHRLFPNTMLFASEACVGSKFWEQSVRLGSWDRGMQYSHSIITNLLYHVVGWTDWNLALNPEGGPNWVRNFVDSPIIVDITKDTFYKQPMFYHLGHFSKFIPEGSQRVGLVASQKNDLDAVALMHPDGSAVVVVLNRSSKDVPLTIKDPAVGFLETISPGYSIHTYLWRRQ

GCase [2] = target: T1, GCase; experiment: Inhibitory activity towards human GCase in leukocyte extracts from healthy donors; format: biochemical; parameters: screened towards GCase from leukocytes isolated from healthy donors (controls); Isolated leukocytes were disrupted by sonication; from tissue; host or cells: pooled human leukocytes from healthy donors, sonicated homogenate; details: for IC50: GCase from leukocytes of healthy donors, 4-methylumbelliferyl-β-D-glucoside 3.33 mM; for inhibition at 1000 µM: human leukocyte extracts, inhibitor 1 mM, 37 °C, read-out: GCase inhibition (percentage inhibition); for rp/n (multivalent effect): relative potency divided by number of binding units n; for rp (relative potency): with respect to monovalent compound 18
Description: The compounds were screened in extracts from a pool of human leucocytes isolated from healthy donors (1 mM inhibitor concentration, 37 °C and optimal pH conditions, see Experimental Section). […] Isolated leukocytes were disrupted by sonication, and a micro BCA protein assay kit (Sigma‐Aldrich) was used to determine the total protein amount for the enzymatic assay, according to the manufacturer instructions. Enzyme activity was measured in a flat‐bottomed 96‐well plate. […] Percentage GCase inhibition is given with respect to the control (without iminosugar). Data are mean ± SD (n=3).
Data are mean ± SD (n=3). Data obtained were fitted using the Origin Microcal program (see the Supporting Information file for further details). […]
leukocytes isolated from healthy donors (controls). Isolated leukocytes were disrupted by sonication, and a micro BCA protein assay kit (Sigma –Aldrich) was used to determine the total protein amount for the enzymatic assay, according to the manufactu rer instructions. Enzyme activity was measured in a flat - […]
GCase inhibition is given with respect to the control (without iminosugar). Data are mean ± SD (n=3).
The corresponding calculated
IC50 determination: The IC50 values of inhibitors against GCase were determined by measuring the initial […]
Data are mean ± SD (n=3). Data obtained were fitted to the following equation using the Origin Microcal program. where Vi/Vo, represent the ratio between the activity measured in the presence of the inhibitor (Vi) and the activity of the control without the inhibitor (V0), “x” the inhibitor concentration, Max and Min, the maximal and minimal enzymatic activity observed, respectively.

Row | Structure (SMILES) | IC50 (GCase [2]) | inhibition at 1000 µM (GCase [2]) | rp/n (multivalent effect) (GCase [2]) | rp (relative potency) (GCase [2]) | Increase of enzyme activity (GCase [1])
1 | CCCCCCCCN1CC(O)C(O)C(O)C1 (stereo not shown) | – | – | – | – | 1.25 fold
2 | NC(COCc1cn(CCCCCCCCCN2C[C@@H](O)C(O)[C@H](O)C2)nn1)(COCc1cn(CCCCCCCCCN2C[C@@H](O)C(O)[C@H](O)C2)nn1)COCc1cn(CCCCCCCCCN2C[C@@H](O)C(O)[C@H](O)C2)nn1 [Compound 11] | 27 ± 3 µM | 100% | 6 | 19 | –
3 | OC1[C@H](O)CN(CCCCCCCCCn2cc(COCC(COCc3cn(CCCCCCCCCN4C[C@@H](O)C(O)[C@H](O)C4)nn3)(COCc3cn(CCCCCCCCCN4C[C@@H](O)C(O)[C@H](O)C4)nn3)COCc3cn(CCCCCCCCCN4C[C@@H](O)C(O)[C@H](O)C4)nn3)nn2)C[C@H]1O [Compound 13] | 9 ± 4 µM | – | 14 | 56 | –

Continued, in another order:

Row | IC50 (GCase [2]) | inhibition at 1000 µM (GCase [2]) | rp/n (multivalent effect) (GCase [2]) | rp (relative potency) (GCase [2]) | Structure (SMILES) | Increase of enzyme activity (GCase [1])
4 | 6 ± 2 µM | – | 14 | 83 | OC1[C@H](O)CN(CCCCCCCCCn2cc(COC[C@@H](OCc3cn(CCCCCCCCCN4C[C@@H](O)C(O)[C@H](O)C4)nn3)[C@@H](OCc3cn(CCCCCCCCCN4C[C@@H](O)C(O)[C@H](O)C4)nn3)[C@H](OCc3cn(CCCCCCCCCN4C[C@@H](O)C(O)[C@H](O)C4)nn3)[C@@H](COCc3cn(CCCCCCCCCN4C[C@@H](O)C(O)[C@H](O)C4)nn3)OCc3cn(CCCCCCCCCN4C[C@@H](O)C(O)[C@H](O)C4)nn3)nn2)C[C@H]1O [Compound 14] | –
5 | 11 ± 3 µM | – | 8 | 45 | O=C(CCCCC(=O)NC(COCc1cn(CCCCCCCCCN2C[C@@H](O)C(O)[C@H](O)C2)nn1)(COCc1cn(CCCCCCCCCN2C[C@@H](O)C(O)[C@H](O)C2)nn1)COCc1cn(CCCCCCCCCN2C[C@@H](O)C(O)[C@H](O)C2)nn1)NC(COCc1cn(CCCCCCCCCN2C[C@@H](O)C(O)[C@H](O)C2)nn1)(COCc1cn(CCCCCCCCCN2C[C@@H](O)C(O)[C@H](O)C2)nn1)COCc1cn(CCCCCCCCCN2C[C@@H](O)C(O)[C@H](O)C2)nn1 [Compound 15] | –
6 | 500 ± 50 µM | ~70% | – | – | OCc1cn(CCCCCCCCCN2C[C@@H](O)C(O)[C@H](O)C2)nn1 [Compound 18] | –
